These results are taken from ChEMBL document CHEMBL1743341, “Cytochrome p450 enzymes mechanism based inhibitors: common sub-structures and reactivity” (Curr Drug Metab, 2005).

Structures are written as SMILES.

What all share (format): ADME
For data set [1], the target named is T1, Cytochrome P450 2B1 (Rattus norvegicus, UniProt P00176).
T1 sequence (P00176 whole entry): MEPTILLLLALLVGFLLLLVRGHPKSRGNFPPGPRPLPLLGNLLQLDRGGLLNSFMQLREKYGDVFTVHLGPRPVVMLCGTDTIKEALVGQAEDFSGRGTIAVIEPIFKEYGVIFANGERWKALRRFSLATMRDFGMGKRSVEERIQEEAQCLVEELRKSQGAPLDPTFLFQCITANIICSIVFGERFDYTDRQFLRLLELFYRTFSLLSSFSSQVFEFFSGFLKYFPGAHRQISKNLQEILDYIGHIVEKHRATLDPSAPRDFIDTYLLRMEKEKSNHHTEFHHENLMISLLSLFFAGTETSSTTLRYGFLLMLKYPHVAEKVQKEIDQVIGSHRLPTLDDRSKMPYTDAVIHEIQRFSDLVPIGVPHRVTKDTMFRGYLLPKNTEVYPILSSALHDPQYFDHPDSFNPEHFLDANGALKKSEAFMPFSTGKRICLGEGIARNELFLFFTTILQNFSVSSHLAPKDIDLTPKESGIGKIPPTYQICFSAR
Nature of the data set: Mechanism based inhibition of rat cytochrome P450 2B1, partition ratio.

Another data set addresses T2, CYP2B6 (Homo sapiens, UniProt P20813).
T2 sequence (P20813 whole entry): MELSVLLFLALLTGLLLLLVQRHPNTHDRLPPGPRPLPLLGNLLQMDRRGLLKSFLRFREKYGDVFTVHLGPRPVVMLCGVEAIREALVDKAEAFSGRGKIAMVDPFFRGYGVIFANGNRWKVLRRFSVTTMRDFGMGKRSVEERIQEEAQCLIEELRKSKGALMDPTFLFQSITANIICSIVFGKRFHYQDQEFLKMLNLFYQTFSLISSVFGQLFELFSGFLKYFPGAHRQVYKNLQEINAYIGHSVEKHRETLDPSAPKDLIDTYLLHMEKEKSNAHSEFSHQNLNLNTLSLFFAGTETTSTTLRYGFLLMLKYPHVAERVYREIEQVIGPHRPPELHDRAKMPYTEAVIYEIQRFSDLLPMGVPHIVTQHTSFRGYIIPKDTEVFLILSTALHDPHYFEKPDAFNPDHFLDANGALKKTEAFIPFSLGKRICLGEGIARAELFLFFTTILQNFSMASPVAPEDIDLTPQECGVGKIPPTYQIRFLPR
Nature of the data set: (§1) Mechanism based inhibition of human cytochrome P450 2B6. The following applies: human.

The target of data set [2] is T3, Cytochrome P450 2B6 (Homo sapiens, UniProt P20813).
T3 sequence (P20813 whole entry): T2 sequence (P20813 whole entry)
The description is as §1.

The target of the next data set is Cytochrome P450 2C9 (Homo sapiens, UniProt P11712). Description: Mechanism based inhibition of human cytochrome P450 2C9.
Chain of Cytochrome P450 2C9 (P11712 whole entry): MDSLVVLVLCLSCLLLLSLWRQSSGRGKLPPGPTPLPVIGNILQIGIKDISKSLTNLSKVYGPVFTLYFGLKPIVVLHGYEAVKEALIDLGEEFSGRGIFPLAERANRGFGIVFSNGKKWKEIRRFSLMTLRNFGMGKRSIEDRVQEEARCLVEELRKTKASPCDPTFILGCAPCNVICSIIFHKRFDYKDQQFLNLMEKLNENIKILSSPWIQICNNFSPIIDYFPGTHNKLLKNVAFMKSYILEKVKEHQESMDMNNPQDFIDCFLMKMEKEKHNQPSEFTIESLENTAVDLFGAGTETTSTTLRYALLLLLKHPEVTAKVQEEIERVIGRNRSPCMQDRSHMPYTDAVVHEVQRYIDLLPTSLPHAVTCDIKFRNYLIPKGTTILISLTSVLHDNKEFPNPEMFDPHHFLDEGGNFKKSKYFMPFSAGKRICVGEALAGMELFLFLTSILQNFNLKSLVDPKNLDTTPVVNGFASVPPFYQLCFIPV
The target in data set [3] is T3, Cytochrome P450 2B6. Nature of the data set: Mechanism based inhibition of human cytochrome P450 2B6, partition ratio.
Data set [4] deals with T1, Cytochrome P450 2B1. Nature of the data set: (§2) Mechanism based inhibition of rat cytochrome P450 2B1.
Data set [5] concerns the target T4, CYP2B1 (Rattus norvegicus, UniProt P00176).
T4 sequence (P00176 whole entry): T1 sequence (P00176 whole entry)
The data set is described as §2. The conditions noted are these: rat.

Data set [6] addresses T5, Cytochrome P450 1A2 (Homo sapiens, UniProt P05177).
T5 sequence (P05177 whole entry): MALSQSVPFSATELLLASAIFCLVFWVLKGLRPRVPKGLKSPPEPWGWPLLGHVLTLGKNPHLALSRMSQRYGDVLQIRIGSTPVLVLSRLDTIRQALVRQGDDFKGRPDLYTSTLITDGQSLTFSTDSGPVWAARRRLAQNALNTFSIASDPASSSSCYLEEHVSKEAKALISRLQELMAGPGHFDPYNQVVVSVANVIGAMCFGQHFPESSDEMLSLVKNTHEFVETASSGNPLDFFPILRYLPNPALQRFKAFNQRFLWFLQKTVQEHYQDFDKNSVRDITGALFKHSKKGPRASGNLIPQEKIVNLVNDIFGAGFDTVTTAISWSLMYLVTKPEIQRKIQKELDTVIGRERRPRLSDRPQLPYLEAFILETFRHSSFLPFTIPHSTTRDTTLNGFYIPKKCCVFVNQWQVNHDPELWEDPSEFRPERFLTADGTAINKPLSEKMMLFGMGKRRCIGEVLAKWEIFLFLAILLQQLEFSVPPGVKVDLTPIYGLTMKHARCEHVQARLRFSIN
Nature of the data set: Mechanism based inhibition of human cytochrome P450 1A2 measured by 7-ethoxyresorufin O-deethylation (EROD).

The target of data set [7] is T5, Cytochrome P450 1A2. Nature of the data set: (§3) Mechanism based inhibition of human cytochrome P450 1A2 measured by 7-methoxyresorufin O-demethylation (MROD).
A further data set addresses T6, CYP1A2 (Homo sapiens, UniProt P05177).
T6 sequence (P05177 whole entry): T5 sequence (P05177 whole entry)
The data set is described as §3. The conditions noted are these: human, probe 7-methoxyresorufin (O-demethylation, MROD).

In data set [8] the target is T7, Cytochrome P450 1A1 (Rattus norvegicus, UniProt P00185).
T7 sequence (P00185 whole entry): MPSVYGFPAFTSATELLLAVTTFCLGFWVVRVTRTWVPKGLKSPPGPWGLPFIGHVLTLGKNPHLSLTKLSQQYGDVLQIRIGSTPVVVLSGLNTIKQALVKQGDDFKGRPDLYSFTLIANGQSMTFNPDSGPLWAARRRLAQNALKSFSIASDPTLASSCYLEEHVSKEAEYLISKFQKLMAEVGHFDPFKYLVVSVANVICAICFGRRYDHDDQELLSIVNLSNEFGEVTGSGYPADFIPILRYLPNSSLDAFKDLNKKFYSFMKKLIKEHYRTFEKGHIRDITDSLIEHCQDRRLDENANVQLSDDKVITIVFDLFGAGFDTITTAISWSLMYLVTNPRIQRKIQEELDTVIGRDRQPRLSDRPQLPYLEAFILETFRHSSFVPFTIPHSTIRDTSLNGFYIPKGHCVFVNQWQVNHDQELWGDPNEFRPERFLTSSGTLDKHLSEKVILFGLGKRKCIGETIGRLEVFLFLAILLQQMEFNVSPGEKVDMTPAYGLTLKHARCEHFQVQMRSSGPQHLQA
Description: Mechanism based inhibition of rat cytochrome P450 CYP1A1.

In a further data set the target is T8, Cytochrome P450 1B1 (Homo sapiens, UniProt Q16678).
T8 sequence (Q16678 whole entry): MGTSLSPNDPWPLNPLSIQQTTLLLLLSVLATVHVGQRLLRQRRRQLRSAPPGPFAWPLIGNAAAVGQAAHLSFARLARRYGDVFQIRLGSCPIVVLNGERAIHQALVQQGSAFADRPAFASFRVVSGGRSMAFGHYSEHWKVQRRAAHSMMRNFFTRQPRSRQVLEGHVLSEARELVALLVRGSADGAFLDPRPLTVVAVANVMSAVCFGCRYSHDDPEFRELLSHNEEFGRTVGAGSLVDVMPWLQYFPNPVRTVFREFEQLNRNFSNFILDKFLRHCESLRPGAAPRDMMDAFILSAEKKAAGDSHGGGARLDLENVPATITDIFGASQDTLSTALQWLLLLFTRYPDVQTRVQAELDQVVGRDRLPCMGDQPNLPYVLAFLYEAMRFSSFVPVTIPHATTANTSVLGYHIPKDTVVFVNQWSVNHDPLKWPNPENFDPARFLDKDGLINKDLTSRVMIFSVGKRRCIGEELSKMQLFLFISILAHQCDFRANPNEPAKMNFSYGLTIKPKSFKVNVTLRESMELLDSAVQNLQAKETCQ
Nature of the data set: Mechanism based inhibition of human cytochrome P450 1B1 measured by 7-ethoxyresorufin O-deethylation (EROD).

Data set [9] deals with T9, Cytochrome P450 1A1 (Homo sapiens, UniProt P04798).
T9 sequence (P04798 whole entry): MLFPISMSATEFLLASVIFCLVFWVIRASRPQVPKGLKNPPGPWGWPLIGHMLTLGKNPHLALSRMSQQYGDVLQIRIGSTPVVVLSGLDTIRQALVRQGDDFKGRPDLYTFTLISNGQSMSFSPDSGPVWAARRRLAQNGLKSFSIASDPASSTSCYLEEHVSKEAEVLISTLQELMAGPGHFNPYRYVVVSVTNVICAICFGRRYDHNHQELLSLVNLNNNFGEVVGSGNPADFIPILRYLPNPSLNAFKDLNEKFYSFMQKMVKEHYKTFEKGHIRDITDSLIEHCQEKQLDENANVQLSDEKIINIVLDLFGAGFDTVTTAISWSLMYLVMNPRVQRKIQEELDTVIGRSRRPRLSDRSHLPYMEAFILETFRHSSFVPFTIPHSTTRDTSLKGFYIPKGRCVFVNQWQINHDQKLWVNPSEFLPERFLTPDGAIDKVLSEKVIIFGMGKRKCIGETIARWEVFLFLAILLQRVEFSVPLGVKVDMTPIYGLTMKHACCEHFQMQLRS
Description: (§4) Mechanism based inhibition of human cytochrome P450 1A1 measured by 7-ethoxyresorufin O-deethylation (EROD).

In the next data set the target is CYP1A1 (Homo sapiens, UniProt P04798). The description is as §4. The following applies: human, probe 7-ethoxyresorufin (O-deethylation, EROD).
The target in data set [10] is T1, Cytochrome P450 2B1. Nature of the data set: (§5) Mechanism based inhibition of rat cytochrome P450 CYP2B1 measured by 7-ethoxycoumarin O-deethylase activity.
Data set [11] deals with T4, CYP2B1. The data set is described as §5. The following applies: rat, probe 7-ethoxycoumarin (O-deethylase activity).

What is called kinact is the maximal first-order rate at which the target is inactivated. Take `CC(C)(c1ccccc1)N1CCCCC1`: the Partition ratio is listed as 31 on Cytochrome P450 2B1 [1] and 15 at Cytochrome P450 2B6 [3]. In addition, the inactivation rate constant (kinact) on CYP2B6 was 0.00117 s⁻¹; at CYP2B1 [5] it was 0.005 s⁻¹. In addition, the results for the Ki on Cytochrome P450 2B6 [2] and at Cytochrome P450 2B1 [4] were 1200 nM and 12000 nM, respectively. Besides, the mechanism based inhibition result at Cytochrome P450 2C9 is recorded as “Cytochrome P450 mechanistic inhibitor: PMID 10901701”.

Turning to `CC#Cc1ccc(-c2ccccc2)cc1`, the mechanism based inhibition result is given as “Cytochrome P450 mechanistic inhibitor: PMID 9760279” on Cytochrome P450 1A2 [6], “Cytochrome P450 mechanistic inhibitor: PMID 9074808” at Cytochrome P450 1A1 [8], “Cytochrome P450 mechanistic inhibitor: PMID 9760279” at Cytochrome P450 1B1 and “Cytochrome P450 mechanistic inhibitor: PMID 9760279” at Cytochrome P450 1A1 [9]. The Ki at Cytochrome P450 1A2 [7] is 13 nM; at Cytochrome P450 1A1 [9], 220 nM. Also, the kinact on CYP1A2 was 0.00167 s⁻¹; at CYP1A1, 0.00667 s⁻¹.

Consider `C#Cc1ccc2ccccc2c1`, for which the mechanism based inhibition entry at Cytochrome P450 1A2 [6], at Cytochrome P450 1B1 and on Cytochrome P450 1A1 [9] was “Cytochrome P450 mechanistic inhibitor: PMID 9760279” each time. Moreover, at Cytochrome P450 2B1 [10], the Ki worked out at 80 nM. Also, the kinact on CYP2B1 [11] is 0.0138 s⁻¹.
